Measured values reported in ChEMBL document CHEMBL5512670 (J Med Chem, 2024).

What was measured:
[1] = AUC (0 to 24 hrs) in C57BL/6 mouse infected with Clostridioides difficile CD1264 at 50 mg/kg,po administrated upto 24 hrs by LC-MS/MS analysis; type: ADME, organism-based; conditions: in vivo
[2] = Lipophilicity, logD of the compound at pH 7.4; type: physicochemical; conditions: buffer
[3] = Drug metabolism in human Hepatocyte assessed as metabolite formation; type: ADME, cell-based; conditions: hepatocytes
[4] = Volume of distribution at steady state in Wistar rat at 1 mg/kg,po administration; type: ADME, organism-based; conditions: in vivo
[5] = Cmax in C57BL/6 mouse infected with Clostridioides difficile CD1264 at 50 mg/kg,po administrated upto 24 hrs by LC-MS/MS analysis; type: ADME, organism-based; conditions: in vivo
[6] = Clearance in Wistar rat plasma at 1 mg/kg,po administration; type: ADME, organism-based
[7] = Half life in Wistar rat at 1 mg/kg,po administration; type: ADME, organism-based; conditions: in vivo
[8] = AUC (0 to 24 hrs) in C57BL/6 mouse at 50 mg/kg,po administrated upto 24 hrs by LC-MS/MS analysis; type: ADME, organism-based; conditions: in vivo
[9] = Dissociation constant, pKa of the compound; type: physicochemical
[10] = Oral bioavailability in Wistar rat plasma at 50 mg/kg administration; type: ADME, organism-based
[11] = Drug metabolism in human liver microsomes assessed as metabolite formation; type: ADME, Microsome
[12] = AUC (0 to 24 hrs) in C57BL/6 mouse infected with Clostridioides difficile CD1264 at 10 mg/kg,po administrated upto 24 hrs by LC-MS/MS analysis; type: ADME, organism-based; conditions: in vivo
[13] = Cmax in C57BL/6 mouse infected with Clostridioides difficile CD1264 at 10 mg/kg,po administrated upto 24 hrs by LC-MS/MS analysis; type: ADME, organism-based; conditions: in vivo
[14] = Drug concentration in Wistar rat plasma at 50 mg/kg,po administration; type: ADME, organism-based; conditions: in vivo
[15] = Clearance in Wistar rat blood at 1 mg/kg,po administration; type: ADME, organism-based
[16] = Cmax in C57BL/6 mouse at 10 mg/kg,po administrated upto 24 hrs by LC-MS/MS analysis; type: ADME, organism-based; conditions: in vivo
[17] = AUC (0 to 24 hrs) in C57BL/6 mouse at 10 mg/kg,po administrated upto 24 hrs by LC-MS/MS analysis; type: ADME, organism-based; conditions: in vivo
[18] = AUC (0 to infinity) in Wistar rat at 1 mg/kg,po administration; type: ADME, organism-based; conditions: in vivo
[19] = Cmax in C57BL/6 mouse at 50 mg/kg,po administrated upto 24 hrs by LC-MS/MS analysis; type: ADME, organism-based; conditions: in vivo

O=C(O)c1cn(C2CC2)c2cc(N3CCC(O)(COc4ccc(N5C[C@H](CO)OC5=O)cc4F)CC3)c(F)cc2c1=O [CADAZOLID]
AUC(0-t) at 24 h [1]: 147 ng·h/mL
logD [2]: 1.2
Drug metabolism [3]: Metabolite_Notdetected
Vdss [4]: 2 L/kg
Cmax [5]: 10 ng/mL
CL/F [6]: 65 mL/min/kg
half-life [7]: 36 min
AUC(0-t) at 24 h [8]: 78 ng·h/mL
pKa [9]: 6
bioavailability [10]: 0%
Drug metabolism [11]: Metabolite_Notdetected
AUC(0-t) at 24 h [12]: 27 ng·h/mL
Cmax [13]: 12 ng/mL
Cp [14]: 1 ng/mL
CL/F [15]: 96 mL/min/kg
Cmax [16]: 3 ng/mL
AUC(0-t) at 24 h [17]: 9 ng·h/mL
AUC(0-inf) [18]: 255 ng·h/mL
Cmax [19]: 6 ng/mL
